Measured values as given in US20140135310A1, “SULPHONAMIDE DERIVATIVES OF ALICYCLIC AMINES FOR THE TREATMENT OF CENTRAL NERVOUS SYSTEM DISEASES” (Adamed Sp. z o.o., priority 2011, published 2014).
Read-outs that look alike come from different tables or passages of the source.

Experiments:
Type in all cases: cell-based
[1] = target: D2 dopaminergic receptors (Homo sapiens, UniProt P14416); assay: Cellular functional assay, D2 dopaminergic receptors; details: D2S (h), HEK-293 cells; for D2 ag [%]: agonism, percent of control specific agonist response (3 μM dopamine for control); for D2 antag [%]: antagonism, stimulus dopamine (30 nM)
Procedure: (§1) The results are expressed as a percent of control specific agonist response ((measured specific response/control specific agonist response)×100) obtained in the presence of the test compounds.
(§2) The EC50 values (concentration producing a half-maximal specific response) and IC50 values (concentration causing a half-maximal inhibition of the control specific agonist response) were determined by non-linear regression analysis of the concentration-response curves generated with mean replicate values using Hill equation curve fitting (Y=D+[(A−D)/(1+(C/C50)nH)], where Y=specific response, D=minimum specific response, A=maximum specific response, C=compound concentration, and C50=EC50 or IC50, and nH=slope factor). This analysis was performed using a software developed at Cerep (Hill software) and validated by comparison with data generated by the commercial software SigmaPlot® 4.0 for Windows® (© 1997 by SPSS Inc.).
(§3) For the antagonists, the apparent dissociation constants (Kb) were calculated using the modified Cheng Prusoff equation (Kb=IC50/(1+(A/EC50A)), where A=concentration of reference agonist in the assay, and EC50A=EC50 value of the reference agonist).

[2] = target: 5-HT6 serotoninergic receptors (Homo sapiens, UniProt P50406); assay: Cellular functional assay, 5-HT6 serotoninergic receptors; details: agonist mode; percent of control specific agonist response
Procedure: as §1, §2, §3

[3] = target: 5-HT2A serotoninergic receptors (Homo sapiens, UniProt P28223); assay: Cellular functional assay, 5-HT2A serotoninergic receptors
Procedure: as §1
as §2, with “factor).” for “factor). This analysis was performed using a software developed at Cerep (Hill software) and validated by comparison with data generated by the commercial software SigmaPlot® 4.0 for Windows® (© 1997 by SPSS Inc.).”
as §3

[4] = target: T1, D4 dopaminergic receptors (Homo sapiens, UniProt P21917); assay: Cellular functional assay, D4 dopaminergic receptors; details: D4.4 (h), CHO cells; for D4 ag [%]: agonism, percent of control specific agonist response (300 nM dopamine for control); for D4 antag [%]: antagonism, stimulus dopamine (100 nM)
T1 sequence (P21917 1-419): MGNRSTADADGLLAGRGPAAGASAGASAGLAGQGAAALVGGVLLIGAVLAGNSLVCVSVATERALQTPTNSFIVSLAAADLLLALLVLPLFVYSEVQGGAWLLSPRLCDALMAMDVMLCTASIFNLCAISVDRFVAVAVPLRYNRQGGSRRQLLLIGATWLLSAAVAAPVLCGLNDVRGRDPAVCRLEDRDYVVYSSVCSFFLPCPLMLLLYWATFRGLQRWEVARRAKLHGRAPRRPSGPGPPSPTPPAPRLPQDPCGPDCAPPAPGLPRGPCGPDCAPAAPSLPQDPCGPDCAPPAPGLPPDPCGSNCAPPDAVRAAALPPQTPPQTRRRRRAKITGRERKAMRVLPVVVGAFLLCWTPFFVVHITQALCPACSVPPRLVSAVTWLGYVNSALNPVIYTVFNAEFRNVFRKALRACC
Procedure: as §1, §2, §3

[5] = target: T2, 5-HT1A serotoninergic receptors (Homo sapiens, UniProt P08908); assay: Cellular functional assay, 5-HT1A serotoninergic receptors; details: for 5-HT1A ag [%]: agonist mode, percent of control specific agonist response; for 5-HT1A antag [%]: antagonist mode
T2 sequence (P08908 1-422): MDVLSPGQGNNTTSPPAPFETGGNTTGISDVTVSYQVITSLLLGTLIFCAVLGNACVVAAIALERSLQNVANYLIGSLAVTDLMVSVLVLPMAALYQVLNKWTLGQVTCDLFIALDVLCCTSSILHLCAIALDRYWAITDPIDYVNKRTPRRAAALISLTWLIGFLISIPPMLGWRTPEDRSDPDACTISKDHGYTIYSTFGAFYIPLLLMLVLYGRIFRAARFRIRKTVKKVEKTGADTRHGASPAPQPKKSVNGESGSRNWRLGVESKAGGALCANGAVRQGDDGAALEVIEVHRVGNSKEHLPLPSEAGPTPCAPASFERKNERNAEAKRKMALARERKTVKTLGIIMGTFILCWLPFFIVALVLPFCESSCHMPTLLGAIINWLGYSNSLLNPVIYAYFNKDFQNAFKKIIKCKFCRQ
Procedure: as §1, §2, §3

[6] = target: D3 dopaminergic receptors (Homo sapiens, UniProt P35462); assay: Cellular functional assay, D3 dopaminergic receptors; details: D3 (h), CHO cells; for D3 ag [%]: agonism, percent of control specific agonist response (0.3 μM dopamine for control); for D3 antag [%]: antagonism, stimulus dopamine (10 nM)
Procedure: as §1, §2, §3

[7] = agonist mode, percent of control specific agonist response

Sequence of D3 dopaminergic receptors (P35462 whole entry): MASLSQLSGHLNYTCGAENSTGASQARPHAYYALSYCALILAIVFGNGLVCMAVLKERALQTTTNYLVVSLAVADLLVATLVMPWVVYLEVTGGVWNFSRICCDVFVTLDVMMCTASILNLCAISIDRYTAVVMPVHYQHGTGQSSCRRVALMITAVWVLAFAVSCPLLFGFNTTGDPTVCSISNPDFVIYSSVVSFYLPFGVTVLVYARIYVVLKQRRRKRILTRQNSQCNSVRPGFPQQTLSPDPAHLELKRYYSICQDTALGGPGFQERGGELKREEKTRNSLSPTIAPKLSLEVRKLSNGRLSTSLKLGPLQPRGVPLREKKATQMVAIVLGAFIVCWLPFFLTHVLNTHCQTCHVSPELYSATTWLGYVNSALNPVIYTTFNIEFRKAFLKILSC
Sequence of 5-HT6 serotoninergic receptors (P50406 whole entry): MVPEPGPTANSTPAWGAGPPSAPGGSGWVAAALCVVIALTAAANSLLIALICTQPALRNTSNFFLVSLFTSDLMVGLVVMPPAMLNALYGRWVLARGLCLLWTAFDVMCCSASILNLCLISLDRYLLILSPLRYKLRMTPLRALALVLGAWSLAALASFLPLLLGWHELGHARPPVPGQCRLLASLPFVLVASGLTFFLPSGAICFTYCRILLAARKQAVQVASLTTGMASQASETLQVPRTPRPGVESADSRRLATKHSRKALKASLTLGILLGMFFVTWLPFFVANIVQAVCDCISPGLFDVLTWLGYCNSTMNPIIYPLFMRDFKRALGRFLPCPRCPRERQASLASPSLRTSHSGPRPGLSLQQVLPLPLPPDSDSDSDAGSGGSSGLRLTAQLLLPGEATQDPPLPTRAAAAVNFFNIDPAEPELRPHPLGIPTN
Sequence of 5-HT2A serotoninergic receptors (P28223 whole entry): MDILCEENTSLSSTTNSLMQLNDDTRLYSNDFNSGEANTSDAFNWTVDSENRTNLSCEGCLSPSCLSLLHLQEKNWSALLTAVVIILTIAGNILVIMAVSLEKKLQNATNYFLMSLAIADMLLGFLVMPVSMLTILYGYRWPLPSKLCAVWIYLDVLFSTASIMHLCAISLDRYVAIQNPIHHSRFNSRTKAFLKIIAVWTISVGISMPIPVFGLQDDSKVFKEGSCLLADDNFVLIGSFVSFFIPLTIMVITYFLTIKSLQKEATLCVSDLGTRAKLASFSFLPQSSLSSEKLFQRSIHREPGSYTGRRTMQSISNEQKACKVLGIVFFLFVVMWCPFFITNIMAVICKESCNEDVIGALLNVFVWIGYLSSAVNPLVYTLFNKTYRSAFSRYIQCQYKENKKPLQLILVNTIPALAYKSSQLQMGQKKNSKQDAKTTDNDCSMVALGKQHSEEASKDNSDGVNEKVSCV
Sequence of D2 dopaminergic receptors (P14416 whole entry): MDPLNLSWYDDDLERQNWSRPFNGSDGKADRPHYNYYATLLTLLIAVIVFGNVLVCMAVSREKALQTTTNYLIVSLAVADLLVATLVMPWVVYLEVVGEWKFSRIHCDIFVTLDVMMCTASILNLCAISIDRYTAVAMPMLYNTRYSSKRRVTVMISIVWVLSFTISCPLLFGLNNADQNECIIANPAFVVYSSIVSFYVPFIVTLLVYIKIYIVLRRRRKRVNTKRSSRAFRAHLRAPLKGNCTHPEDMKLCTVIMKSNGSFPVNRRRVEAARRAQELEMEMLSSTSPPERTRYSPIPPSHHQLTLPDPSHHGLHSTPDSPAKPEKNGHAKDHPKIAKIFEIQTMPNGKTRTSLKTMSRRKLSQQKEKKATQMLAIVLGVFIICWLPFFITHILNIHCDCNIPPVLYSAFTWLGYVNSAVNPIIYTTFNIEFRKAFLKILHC

Compound	D2 ag [%] [1] [%]	D2 antag [%] [1] [%]	5-HT6 ag [%] [2] [%]	5-HT2A ag [%] [3] [%]	D4 ag [%] [4] [%]	D4 antag [%] [4] [%]	5-HT2A ag [%] [3, 7] [%]	5-HT1A ag [%] [5] [%]	D3 ag [%] [6] [%]	D3 antag [%] [6] [%]	5-HT1A antag [%] [5] [%]	5-HT2A antag [%] ([3]; antagonist mode)
O=S(=O)(NC1CCN(CCCc2noc3cc(F)ccc23)C1)c1cccc2ccccc12 (stereo not drawn) [Compound 20, N-[1-[3-(6-Fluoro-1,2-benzoxazol-3-yl)propyl]pyrrolidin-3-yl]naphthalene-1-sulphonamide]	4	32	1	0	17	79	–	–	–	–	–	–
O=S(=O)(NC1CCN(CCCc2noc3cc(F)ccc23)C1)c1csc2ccccc12 (stereo not drawn) [Compound 26, N-[1-[3-(6-Fluoro-1,2-benzoxazol-3-yl)propyl]pyrrolidin-3-yl]-benzothiophene-3-sulphonamide]	3	68	0	–	−4	88	−1	–	–	–	–	–
O=S(=O)(NC1CCN(CCOc2nsc3ccccc23)C1)c1ccc2ccccc2c1 (stereo not drawn) [Compound 39, N-[1-[2-(1,2-Benzothiazol-3-yloxy)ethyl]pyrrolidin-3-yl]naphthalene-2-sulphonamide]	–	–	−1	3	–	–	–	34	66	16	–	–
O=S(=O)(NC1CN(CCOc2cccc3[nH]ccc23)C1)c1cccc2ccccc12 [Compound 49, N-[1-[2-(1H-Indol-4-yloxy)ethyl]azetidin-3-yl]naphthalene-1-sulphonamide]	57	97	–	–	–	–	–	39	75	12	–	–
O=S(=O)(NC1CCN(CCOc2cccc3[nH]ccc23)CC1)c1ccccc1 [Compound 55, N-[1-[2-(1H-Indol-4-yloxy)ethyl]-4-piperidine]benzenesulphonamide]	–	–	–	–	–	–	−1	72	82	−33	18	–
O=S(=O)(NC1CN(CCOc2cccc3c2OCCO3)C1)c1ccc(Cl)cc1 [Compound 92, 4-Chloro-N-[1-[2-(2,3-dihydro-1,4-benzodioxan-8-yloxy)ethyl]azetidin-3-yl]benzene-sulphonamide]	–	–	–	–	–	–	–	47	–	–	89	–
Cc1cccc(S(=O)(=O)NC2CN(CCOc3cccc4c3OCCO4)C2)c1 [Compound 93, N-[1-[2-(2,3-Dihydro-1,4-benzodioxan-8-yloxy)ethyl]azetidin-3-yl]-3-methyl-benzenesulphonamide]	–	–	–	–	–	–	–	37	–	–	76	–
O=S(=O)(N[C@@H]1CCN(CCCc2noc3cc(F)ccc23)C1)c1cc2ccccc2o1 [Compound 214, N-[(3R)-1-[3-(6-Fluoro-1,2-benzoxazol-3-yl)propyl]pyrrolidin-3-yl]benzo-furan-2-sulphonamide]	3	89	−4	–	–	–	−2	–	–	117	–	–
Cc1cc(S(=O)(=O)NC2CCN(CCCc3noc4cc(F)ccc34)C2)c(C)s1 (stereo not drawn) [Compound 221, N-[1-[3-(6-Fluoro-1,2-benzoxazol-3-yl)propyl]pyrrolidin-3-yl]-2,5-dimethyl-thiophene-3-sulphonamide]	14	97	−4	−2	10	73	–	–	−3	100	–	–
Cc1cc(S(=O)(=O)N[C@@H]2CCN(CCCc3noc4cc(F)ccc34)C2)c(C)s1 [Compound 222, N-[(3R)-1-[3-(6-Fluoro-1,2-benzoxazol-3-yl)propyl]pyrrolidin-3-yl]-2,5-dimethyl-thiophene-3-sulphonamide]	6	65	−1	−1	6	58	–	–	–	–	–	–
Cc1cc(S(=O)(=O)N[C@H]2CCN(CCCc3noc4cc(F)ccc34)C2)c(C)s1 [Compound 223, N-[(3S)-1-[3-(6-Fluoro-1,2-benzoxazol-3-yl)propyl]pyrrolidin-3-yl]-2,5-dimethyl-thiophene-3-sulphonamide]	–	–	−1	0	4	22	–	–	–	–	–	–
O=S(=O)(N[C@@H]1CCN(CCCc2noc3cc(F)ccc23)C1)c1csc2ccccc12 [Compound 224, N-[(3R)-1-[3-(6-Fluoro-1,2-benzoxazol-3-yl)propyl]pyrrolidin-3-yl]benzothiophene-3-sulphonamide]	5	57	−1	–	−7	84	−2	–	–	–	–	–
O=S(=O)(N[C@H]1CCN(CCCc2noc3cc(F)ccc23)C1)c1csc2ccccc12 [Compound 225, N-[(3S)-1-[3-(6-Fluoro-1,2-benzoxazol-3-yl)propyl]pyrrolidin-3-yl]benzothiophene-3-sulphonamide]	7	52	1	–	−3	35	−1	–	–	–	–	–
Cc1ccc2sc(S(=O)(=O)NC3CCN(CCCc4noc5cc(F)ccc45)C3)cc2c1 (stereo not drawn) [Compound 226, N-[1-[3-(6-Fluoro-1,2-benzoxazol-3-yl)propyl]pyrrolidin-3-yl]-5-methylbenzothiophene-2-sulphonamide]	0	87	−5	–	–	–	−1	–	−26	107	–	–
COc1ccc2cc(S(=O)(=O)NC3CCN(CCCc4noc5cc(F)ccc45)C3)ccc2c1 (stereo not drawn) [Compound 227, N-[1-[3-(6-Fluoro-1,2-benzoxazol-3-yl)propyl]pyrrolidin-3-yl]-6-methoxy-naphthalene-2-sulphonamide]	11	99	−4	–	–	–	−2	–	−6	105	–	–
O=S(=O)(NC1CCN(CCCc2noc3cc(F)ccc23)C1)c1cc2ccc(F)cc2s1 (stereo not drawn) [Compound 234, 6-Fluoro-N-[1-[3-(6-fluoro-1,2-benzoxazol-3-yl)propyl]pyrrolidin-3-yl]benzothiophene-2-sulphonamide]	2	91	−1	1	–	–	–	–	−14	89	–	–
N-[[1-[2-[(2,2-Dimethyl-3H-benzofuran-7-yl)oxy]ethyl]azetidin-3-yl]methyl]-3-hydroxy-benzenesulphonamide [Compound 111]	36	89	–	–	–	–	5	48	–	–	89	58
